# Measurements reported in patent US8506950B2, “Degradable microcapsules” (ETH Zurich, priority 2008, dated 2013).
# Where “and” joins values, the source holds several entries; their conditions need not be identical. Equal values may be shown once.
# Molecular target: rLHR (Rattus norvegicus, UniProt P16235)
# Experiment: PCRE controlled luciferase expression in HEK293T transiently transfected with rLHR
# Type: cell-based
# Parameters: Full-length cDNAs encoding the LHRs of rat (r) and bovine (b) origin; expressed in transfected cells; host or cells: HEK293T, transient transfection with pLEN-rLHR
# Conditions: 500 ng/ml bLH, 6 h post-induction, pLEN-rLHR + pCRE-Luc
# Protocol: HEK293T cells were transiently transfected for rLHR and PCRE controlled luciferase expression. 24 hours after transfection the cells were transferred to a 96-well plate, cultured for 12 h and induced by the addition of 500 ng/ml bLH. The luciferase expression was measured 6 h post-induction. […] Luciferase expression was expressed as relative light units (RLU).
# Functional expression of LHRs on the cell surface results in the stimulation of PKA and an increase of intracellular cAMP in response to bLH. It was evaluated whether the activated LHR-signaling may induce a PKA-responsive promoter. […] 24 hours post-transfection the cells were induced by bLH and the SEAP expression was determined over time. […] In comparing rLHR- and bLHR-expressing cells a 3-fold increase in maximal SEAP expression in response to bLH of the rLHR over the bLHR was detected. […]
# The intracellular cAMP production of cells was quantified using the cAMP Fluorescence Polarization (FP) Biotrak Immunoassay System (GE Healthcare Bio-Sciences GmbH, Otelfingen, Switzerland, Cat No. RPN3595) according to the manufacturer's protocol. The expression of firefly luciferase was determined with the Tropix Luciferase Assay Kit (Applied Biosystems, Bedford, USA, Cat No. BC100L). […] Enhanced YFP-expression was detected by fluorescence microscopy (Leica Microsystems, Wetzlar, Germany)
# Chain of rLHR (P16235 27-700): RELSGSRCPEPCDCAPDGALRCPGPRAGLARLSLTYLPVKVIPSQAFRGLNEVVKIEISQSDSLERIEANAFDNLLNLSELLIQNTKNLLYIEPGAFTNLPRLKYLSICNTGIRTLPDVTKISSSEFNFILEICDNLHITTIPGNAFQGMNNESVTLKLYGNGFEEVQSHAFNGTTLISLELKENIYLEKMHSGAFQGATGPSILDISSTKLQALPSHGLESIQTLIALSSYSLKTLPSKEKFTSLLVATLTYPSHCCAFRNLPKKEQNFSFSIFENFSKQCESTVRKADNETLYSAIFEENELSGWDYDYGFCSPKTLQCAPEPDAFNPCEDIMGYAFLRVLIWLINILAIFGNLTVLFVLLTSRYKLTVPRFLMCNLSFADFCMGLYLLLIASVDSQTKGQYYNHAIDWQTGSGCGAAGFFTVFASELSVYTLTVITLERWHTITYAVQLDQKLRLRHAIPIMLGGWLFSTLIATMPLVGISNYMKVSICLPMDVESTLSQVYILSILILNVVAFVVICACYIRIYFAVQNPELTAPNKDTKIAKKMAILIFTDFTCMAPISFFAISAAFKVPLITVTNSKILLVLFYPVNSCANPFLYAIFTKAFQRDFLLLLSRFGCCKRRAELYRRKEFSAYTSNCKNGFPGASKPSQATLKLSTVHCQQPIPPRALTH
substance,measurement,value
bovine luteinizing hormone [bLH],increase in luciferase expression,10 fold and 9.9±0.1 fold
